Where two headings read alike, the source gives them in different places.
System: Angiotensin II (AII) vasopressor response
Assay: AII Challenge: antagonism of angiotensin II vasopressor response in conscious spontaneously hypertensive rats
Type: in vivo, rat (male okamoto-Aoki SHR)
Settings: for inhibition in vivo at 1 mg/kg / inhibition in vivo at 3 mg/kg / inhibition in vivo at 5 mg/kg: Rattus norvegicus; for inhibition in vivo at 1 mg/kg / inhibition in vivo at 3 mg/kg: iv; for inhibition in vivo at 1 mg/kg / inhibition in vivo at 3 mg/kg / inhibition in vivo at 5 mg/kg / Average Change: SHR n=2; for inhibition in vivo at 3 mg/kg / inhibition in vivo at 5 mg/kg: read-out: Inhibition; for inhibition in vivo at 5 mg/kg: po
How it was run: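 Conscious male SHR (16–20 weeks, ~330 g) cannulated under local procaine, blood pressure recorded via transducer. Angiotensin II (human) 0.05 and 0.1 ug/kg i.v. given before and after test compound dosed i.v., i.p. or orally; response measured as rise in systolic pressure (mmHg).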

Structure (SMILES): CCCCc1nc2ccc([C@H]3[C@@H]4CCC[C@@H]4ON3C)cc2c(=O)n1Cc1ccc(-c2ccccc2-c2nnn[nH]2)cc1 (relative stereo) [Example 50]
- inhibition in vivo at 1 mg/kg (0.5 h, 1 mg/kg I.V., AII 0.05 mcg/kg IV, 30 min post dose): 17%
- inhibition in vivo at 1 mg/kg (0.5 h, 1 mg/kg I.V., AII 0.1 mcg/kg IV, 30 min post dose): 39%
- inhibition in vivo at 3 mg/kg (0.5 h, 3 mg/kg I.V., AII 0.05 mcg/kg IV, 30 min post dose): 64%
- inhibition in vivo at 3 mg/kg (0.5 h, 3 mg/kg I.V., AII 0.1 mcg/kg IV, 30 min post dose): 66%
- inhibition in vivo at 1 mg/kg (1 h, 1 mg/kg I.V., AII 0.05 mcg/kg IV, 60 min post dose): 17%
- inhibition in vivo at 1 mg/kg (1 h, 1 mg/kg I.V., AII 0.1 mcg/kg IV, 60 min post dose): 27%
- inhibition in vivo at 3 mg/kg (1 h, 3 mg/kg I.V., AII 0.05 mcg/kg IV, 60 min post dose): 70%
- inhibition in vivo at 3 mg/kg (1 h, 3 mg/kg I.V., AII 0.1 mcg/kg IV, 60 min post dose): 65%
- inhibition in vivo at 1 mg/kg (2 h, 1 mg/kg I.V., AII 0.05 mcg/kg IV, 120 min post dose): 17%
- inhibition in vivo at 1 mg/kg (2 h, 1 mg/kg I.V., AII 0.1 mcg/kg IV, 120 min post dose): 35%
- inhibition in vivo at 3 mg/kg (2 h, 3 mg/kg I.V., AII 0.05 mcg/kg IV, 120 min post dose): 66%
- inhibition in vivo at 3 mg/kg (2 h, 3 mg/kg I.V., AII 0.1 mcg/kg IV, 120 min post dose): 75%
- inhibition in vivo at 1 mg/kg (3 h, 1 mg/kg I.V., AII 0.05 mcg/kg IV, 180 min post dose): 25%
- inhibition in vivo at 1 mg/kg (3 h, 1 mg/kg I.V., AII 0.1 mcg/kg IV, 180 min post dose): 33%
- inhibition in vivo at 3 mg/kg (3 h, 3 mg/kg I.V., AII 0.05 mcg/kg IV, 180 min post dose): 59%
- inhibition in vivo at 3 mg/kg (3 h, 3 mg/kg I.V., AII 0.1 mcg/kg IV, 180 min post dose): 68%
- inhibition in vivo at 1 mg/kg (4 h, 1 mg/kg I.V., AII 0.05 mcg/kg IV, 240 min post dose): -8%
- inhibition in vivo at 1 mg/kg (4 h, 1 mg/kg I.V., AII 0.1 mcg/kg IV, 240 min post dose): -16%
- inhibition in vivo at 1 mg/kg (5 h, 1 mg/kg I.V., AII 0.05 mcg/kg IV, 300 min post dose): -25%
- inhibition in vivo at 1 mg/kg (5 h, 1 mg/kg I.V., AII 0.1 mcg/kg IV, 300 min post dose): -11%
- inhibition in vivo at 1 mg/kg (16.5 h, 1 mg/kg I.V., AII 0.05 mcg/kg IV, 990 min post dose (so in the source)): 20%
- inhibition in vivo at 1 mg/kg (16.5 h, 1 mg/kg I.V., AII 0.1 mcg/kg IV, 990 min post dose (so in the source)): 9%
- inhibition in vivo at 3 mg/kg ([…], 3 mg/kg I.V., AII 0.05 mcg/kg IV, 90 min post dose): 80%
- inhibition in vivo at 3 mg/kg ([…], 3 mg/kg I.V., AII 0.1 mcg/kg IV, 90 min post dose): 52%
- inhibition in vivo at 5 mg/kg (0.5 h, 5 mg/kg P.O., AII 0.05 mcg/kg IV, 30 min post dose): 47%
- inhibition in vivo at 5 mg/kg (0.5 h, 5 mg/kg P.O., AII 0.1 mcg/kg IV, 30 min post dose): 25%
- inhibition in vivo at 5 mg/kg (1 h, 5 mg/kg P.O., AII 0.05 mcg/kg IV, 60 min post dose): 47%
- inhibition in vivo at 5 mg/kg (1 h, 5 mg/kg P.O., AII 0.1 mcg/kg IV, 60 min post dose): 32%
- inhibition in vivo at 5 mg/kg (2 h, 5 mg/kg P.O., AII 0.05 mcg/kg IV, 120 min post dose): 68%
- inhibition in vivo at 5 mg/kg (3 h, 5 mg/kg P.O., AII 0.05 mcg/kg IV, 180 min post dose): 35%
- inhibition in vivo at 5 mg/kg (3 h, 5 mg/kg P.O., AII 0.1 mcg/kg IV, 180 min post dose): 18%
- inhibition in vivo at 5 mg/kg ([…], 5 mg/kg P.O., AII 0.05 mcg/kg IV, 90 min post dose): 53%
- inhibition in vivo at 5 mg/kg ([…], 5 mg/kg P.O., AII 0.1 mcg/kg IV, 90 min post dose): 52%
- Average Change (1 mg/kg I.V., AII 0.05 mcg/kg IV, 30 min post dose): 25 mmHg
- Average Change (1 mg/kg I.V., AII 0.05 mcg/kg IV, 60 min post dose): 25 mmHg
- Average Change (1 mg/kg I.V., AII 0.05 mcg/kg IV, 120 min post dose): 25 mmHg
- Average Change (1 mg/kg I.V., AII 0.05 mcg/kg IV, 180 min post dose): 22.5 mmHg
- Average Change (1 mg/kg I.V., AII 0.05 mcg/kg IV, 240 min post dose): 32.5 mmHg
- Average Change (1 mg/kg I.V., AII 0.05 mcg/kg IV, 300 min post dose): 37.5 mmHg
- Average Change (1 mg/kg I.V., AII 0.05 mcg/kg IV, 990 min post dose (so in the source)): 24 mmHg
- Average Change (1 mg/kg I.V., AII 0.1 mcg/kg IV, 30 min post dose): 25 mmHg
- Average Change (1 mg/kg I.V., AII 0.1 mcg/kg IV, 60 min post dose): 30 mmHg
- Average Change (1 mg/kg I.V., AII 0.1 mcg/kg IV, 120 min post dose): 26.5 mmHg
- Average Change (1 mg/kg I.V., AII 0.1 mcg/kg IV, 180 min post dose): 27.5 mmHg
- Average Change (1 mg/kg I.V., AII 0.1 mcg/kg IV, 240 min post dose): 47.5 mmHg
- Average Change (1 mg/kg I.V., AII 0.1 mcg/kg IV, 300 min post dose): 45.5 mmHg
- Average Change (1 mg/kg I.V., AII 0.1 mcg/kg IV, 990 min post dose (so in the source)): 37.5 mmHg
- Average Change (3 mg/kg I.V., AII 0.05 mcg/kg IV, 30 min post dose): 20 mmHg
- Average Change (3 mg/kg I.V., AII 0.05 mcg/kg IV, 60 min post dose): 16.5 mmHg
- Average Change (3 mg/kg I.V., AII 0.05 mcg/kg IV, 90 min post dose): 11 mmHg
- Average Change (3 mg/kg I.V., AII 0.05 mcg/kg IV, 120 min post dose): 18.5 mmHg
- Average Change (3 mg/kg I.V., AII 0.05 mcg/kg IV, 180 min post dose): 22.5 mmHg
- Average Change (3 mg/kg I.V., AII 0.1 mcg/kg IV, 30 min post dose): 18.5 mmHg
- Average Change (3 mg/kg I.V., AII 0.1 mcg/kg IV, 60 min post dose): 19 mmHg
- Average Change (3 mg/kg I.V., AII 0.1 mcg/kg IV, 90 min post dose): 26.5 mmHg
- Average Change (3 mg/kg I.V., AII 0.1 mcg/kg IV, 120 min post dose): 14 mmHg
- Average Change (3 mg/kg I.V., AII 0.1 mcg/kg IV, 180 min post dose): 17.5 mmHg
- Average Change (5 mg/kg P.O., AII 0.05 mcg/kg IV, 30 min post dose): 22.5 mmHg
- Average Change (5 mg/kg P.O., AII 0.05 mcg/kg IV, 60 min post dose): 22.5 mmHg
- Average Change (5 mg/kg P.O., AII 0.05 mcg/kg IV, 90 min post dose): 20 mmHg
- Average Change (5 mg/kg P.O., AII 0.05 mcg/kg IV, 120 min post dose): 13.5 mmHg
- Average Change (5 mg/kg P.O., AII 0.05 mcg/kg IV, 180 min post dose): 27.5 mmHg
- Average Change (5 mg/kg P.O., AII 0.1 mcg/kg IV, 30 min post dose): 32 mmHg
- Average Change (5 mg/kg P.O., AII 0.1 mcg/kg IV, 60 min post dose): 29 mmHg
- Average Change (5 mg/kg P.O., AII 0.1 mcg/kg IV, 90 min post dose): 20.5 mmHg
- Average Change (5 mg/kg P.O., AII 0.1 mcg/kg IV, 120 min post dose): 22.5 mmHg
- Average Change (5 mg/kg P.O., AII 0.1 mcg/kg IV, 180 min post dose): 35 mmHg
- Change (single SHR, 5 mg/kg P.O., AII 0.1 mcg/kg IV, 180 min post dose): 35 mmHg

Reference: patent US5294611A, “Angiotensin II receptor blocking 2,3,6 substituted quinazolinones” (American Cyanamid Company, priority 1993, dated 1994)
